Biological target: T1, BTK (Homo sapiens, UniProt Q06187)
T1 construct: purchased Upstate 14-552
Test: In vitro BTK kinase assay: BTK-POLYGAT-LS ASSAY
Assay type: biochemical
Conditions: ATP 10 uM
Method in brief: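 BTK phosphorylation of polyGAT (100 nM final) with ATP at 10 μM final, 10 mM Tris-HCl pH 7.5 kinase buffer, quenched by EDTA after 30 min. Potency given as IC50.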

T1 sequence (Q06187 whole entry): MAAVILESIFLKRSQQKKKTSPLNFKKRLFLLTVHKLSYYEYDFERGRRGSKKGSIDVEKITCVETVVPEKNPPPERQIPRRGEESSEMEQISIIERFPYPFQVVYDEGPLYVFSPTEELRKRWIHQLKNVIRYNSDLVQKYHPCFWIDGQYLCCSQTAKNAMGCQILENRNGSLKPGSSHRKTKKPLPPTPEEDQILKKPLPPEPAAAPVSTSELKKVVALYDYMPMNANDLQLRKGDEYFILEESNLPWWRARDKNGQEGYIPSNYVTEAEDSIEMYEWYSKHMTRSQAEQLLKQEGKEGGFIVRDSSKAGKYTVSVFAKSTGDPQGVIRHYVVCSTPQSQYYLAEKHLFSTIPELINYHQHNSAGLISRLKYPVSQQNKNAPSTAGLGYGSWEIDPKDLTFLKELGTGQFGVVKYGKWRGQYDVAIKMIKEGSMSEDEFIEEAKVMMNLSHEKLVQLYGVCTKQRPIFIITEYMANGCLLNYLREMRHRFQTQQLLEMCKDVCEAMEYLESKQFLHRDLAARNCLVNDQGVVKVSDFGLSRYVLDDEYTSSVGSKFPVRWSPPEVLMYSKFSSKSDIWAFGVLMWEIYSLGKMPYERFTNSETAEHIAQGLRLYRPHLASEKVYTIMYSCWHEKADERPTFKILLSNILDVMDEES

SMILES | IC50 [nM]
Cc1ccc(F)cc1NCC(=O)N[C@@H]1CCCN(c2ncnc3[nH]ccc23)C1 [Example 273] | < 100
O=C(CNc1cccc2ccccc12)N[C@@H]1CCCN(c2ncnc3[nH]ccc23)C1 [Example 274] | 100 to 999
O=C(CNc1ccc(F)c(I)c1)N[C@@H]1CCCN(c2ncnc3[nH]ccc23)C1 [Example 275] | 100 to 999
O=C(CNc1ccccc1OCC(F)(F)F)N[C@@H]1CCCN(c2ncnc3[nH]ccc23)C1 [Example 277] | 100 to 999
O=C(CNc1cc(C(F)(F)F)ccc1N1CCCC1)N[C@@H]1CCCN(c2ncnc3[nH]ccc23)C1 [Example 278] | 100 to 999
CCC[C@@H](Nc1ccccc1C(C)C)C(=O)N[C@@H]1CCCN(c2ncnc3[nH]ccc23)C1 [Example 279] | 100 to 999
O=C(CNc1cccc(OC2CCCC2)c1)N[C@@H]1CCCN(c2ncnc3[nH]ccc23)C1 [Example 281] | 100 to 999
Cc1cc(C)cc(NCC(=O)N[C@@H]2CCCN(c3ncnc4[nH]ccc34)C2)c1 [Example 282] | 100 to 999
CC(C)CCOc1cccc(NCC(=O)N[C@@H]2CCCN(c3ncnc4[nH]ccc34)C2)c1 [Example 283] | < 100
CC(C)c1ccccc1N[C@@H](C(=O)N[C@@H]1CCCN(c2ncnc3[nH]ccc23)C1)C1CC1 [Example 284] | 100 to 999
O=C(CNc1cc(F)c(F)c(F)c1)N[C@@H]1CCCN(c2ncnc3[nH]ccc23)C1 [Example 285] | 100 to 999
O=C(CNc1ccc(Cl)c(Cl)c1)N[C@@H]1CCCN(c2ncnc3[nH]ccc23)C1 [Example 286] | 100 to 999
Cc1ccc(NCC(=O)N[C@@H]2CCCN(c3ncnc4[nH]ccc34)C2)cc1Cl [Example 287] | 100 to 999
CN(C)S(=O)(=O)c1ccccc1NCC(=O)N[C@@H]1CCCN(c2ncnc3[nH]ccc23)C1 [Example 288] | 100 to 999
Cc1nc(-c2cccc(NCC(=O)N[C@@H]3CCCN(c4ncnc5[nH]ccc45)C3)c2)cs1 [Example 289] | 100 to 999
O=C(CNc1ccccc1N1CCCCC1)N[C@@H]1CCCN(c2ncnc3[nH]ccc23)C1 [Example 290] | 100 to 999
Cc1cccc(NCC(=O)N[C@@H]2CCCN(c3ncnc4[nH]ccc34)C2)c1C [Example 292] | 100 to 999
Cc1ccc(NCC(=O)N[C@@H]2CCCN(c3ncnc4[nH]ccc34)C2)cc1F [Example 293] | 100 to 999
CC[C@@H](Nc1ccccc1C(C)C)C(=O)N[C@@H]1CCCN(c2ncnc3[nH]ncc23)C1 [Example 294] | 100 to 999
Cc1ccc(Cl)cc1NCC(=O)N[C@@H]1CCCN(c2ncnc3[nH]ccc23)C1 [Example 295] | 100 to 999
CC(C)(O)[C@@H](Nc1cc(F)cc(Cl)c1)C(=O)N[C@@H]1CCCN(c2ncnc3[nH]ccc23)C1 [Example 296] | 100 to 999
N#Cc1cc(Cl)cc(NCC(=O)N[C@@H]2CCCN(c3ncnc4[nH]ccc34)C2)c1 [Example 297] | 100 to 999
O=C(CNc1cccc(Cl)c1Cl)N[C@@H]1CCCN(c2ncnc3[nH]ccc23)C1 [Example 299] | 100 to 999
CC(C)c1ccccc1N[C@@H](C(=O)N[C@@H]1CCCN(c2ncnc3[nH]ccc23)C1)C(C)(C)C [Example 300] | 100 to 999
O=C(CNc1cccc(N2CCCC2)c1)N[C@@H]1CCCN(c2ncnc3[nH]ccc23)C1 [Example 301] | 100 to 999
Cc1ccc(C)n1-c1cccc(NCC(=O)N[C@@H]2CCCN(c3ncnc4[nH]ccc34)C2)c1 [Example 302] | 100 to 999

More lines, now with the values ahead:

IC50 [nM] | SMILES
100 to 999 | O=C(CNc1cccc(-n2cccc2)c1)N[C@@H]1CCCN(c2ncnc3[nH]ccc23)C1 [Example 303]
100 to 999 | O=C(CNc1cccc(-c2cn3ccccc3n2)c1)N[C@@H]1CCCN(c2ncnc3[nH]ccc23)C1 [Example 304]
100 to 999 | O=C(CNc1cccc(-c2cccs2)c1)N[C@@H]1CCCN(c2ncnc3[nH]ccc23)C1 [Example 305]
100 to 999 | C[C@H](O)[C@@H](Nc1cc(F)cc(Cl)c1)C(=O)N[C@@H]1CCCN(c2ncnc3[nH]ccc23)C1 [Example 306]
100 to 999 | C[C@@H](O)[C@@H](Nc1cc(F)cc(Cl)c1)C(=O)N[C@@H]1CCCN(c2ncnc3[nH]ccc23)C1 [Example 307]
100 to 999 | O=C(CNc1cc(C(F)(F)F)cc(C(F)(F)F)c1)N[C@@H]1CCCN(c2ncnc3[nH]ccc23)C1 [Example 308]
100 to 999 | COc1ccccc1NCC(=O)N[C@@H]1CCCN(c2ncnc3[nH]ccc23)C1 [Example 309]
100 to 999 | CCOc1ccccc1NCC(=O)N[C@@H]1CCCN(c2ncnc3[nH]ccc23)C1 [Example 310]
100 to 999 | COc1ccc(Cl)cc1NCC(=O)N[C@@H]1CCCN(c2ncnc3[nH]ccc23)C1 [Example 312]
100 to 999 | Cc1ccc(Cl)c(NCC(=O)N[C@@H]2CCCN(c3ncnc4[nH]ccc34)C2)c1 [Example 313]
100 to 999 | Nc1cc(N2CCC[C@@H](NC(=O)[C@H](Nc3cc(F)cc(Cl)c3)C3CC3)C2)ncn1 [Example 314]
100 to 999 | CC(C)Oc1cccc(NCC(=O)N[C@@H]2CCCN(c3ncnc4[nH]ccc34)C2)c1 [Example 315]
100 to 999 | CCOc1cccc(NCC(=O)N[C@@H]2CCCN(c3ncnc4[nH]ccc34)C2)c1 [Example 316]
100 to 999 | O=C(CNc1ccc(Cl)cc1Cl)N[C@@H]1CCCN(c2ncnc3[nH]ccc23)C1 [Example 317]
100 to 999 | O=C(CNc1ccccc1F)N[C@@H]1CCCN(c2ncnc3[nH]ccc23)C1 [Example 318]
100 to 999 | O=C(CNc1cc(Cl)ccc1Cl)N[C@@H]1CCCN(c2ncnc3[nH]ccc23)C1 [Example 319]

IC50 [nM] | SMILES
100 to 999 | Nc1ncnc(N2CCC[C@@H](NC(=O)CNc3cc(Cl)cc(Cl)c3)C2)c1CCCO [Example 320]
100 to 999 | O=C(CNc1c(F)cccc1F)N[C@@H]1CCCN(c2ncnc3[nH]ccc23)C1 [Example 321]
100 to 999 | COc1cccc(NCC(=O)N[C@@H]2CCCN(c3ncnc4[nH]ccc34)C2)c1 [Example 322]
100 to 999 | O=C(CNc1ccccc1)N(CCN1CCOCC1)C1CCCN(c2ncnc3[nH]ccc23)C1 (stereo not drawn) [Example 323]
100 to 999 | O=C(CNc1cccc2c1CCC2)N[C@@H]1CCCN(c2ncnc3[nH]ccc23)C1 [Example 324]
100 to 999 | NC(=O)c1c(N)ncnc1N1CCC[C@@H](NC(=O)CNc2cc(Cl)cc(Cl)c2)C1 [Example 326]
100 to 999 | COc1cc(NCC(=O)N[C@@H]2CCCN(c3ncnc4[nH]ccc34)C2)cc(C(F)(F)F)c1 [Example 327]
> 10000 | O=C(CNc1cccc2nccn12)NC1CCCN(c2ncnc3[nH]ccc23)C1 (stereo not drawn) [Example 328]
> 10000 | O=C(CNc1cccc2ccncc12)NC1CCCN(c2ncnc3[nH]ccc23)C1 (stereo not drawn) [Example 329]
> 10000 | O=C(CNC(=O)N1CCCCC1)NC1CCCN(c2ncnc3[nH]ccc23)C1 (stereo not drawn) [Example 330]
> 10000 | CC(C)n1ccc(NCC(=O)NC2CCCN(c3ncnc4[nH]ccc34)C2)n1 (stereo not drawn) [Example 331]
> 10000 | O=C(CNc1cccc2ncccc12)NC1CCCN(c2ncnc3[nH]ccc23)C1 (stereo not drawn) [Example 332]
1000 to 10000 | O=C(CNc1cccc2cnccc12)NC1CCCN(c2ncnc3[nH]ccc23)C1 (stereo not drawn) [Example 333]
1000 to 10000 | O=C(CNc1cccc(C(F)(F)F)n1)NC1CCCN(c2ncnc3[nH]ccc23)C1 (stereo not drawn) [Example 334]
> 10000 | O=C(CNc1ccc2c(c1)OCO2)NC1CCCN(c2nccc3[nH]ccc23)C1 (stereo not drawn) [Example 335]
